In the supplement of paper PMC10307832:

Tests used:
Experiment in all cases: relative viability (nuclei count vs DMSO), 5 days (fraction); higher = more cells survive
[1] = compound: CN1C=C(C2=CC=CC=C21)/C=C\3/C4=C(C=CC=N4)NC3=O + O=C(c1cc(Cc2n[nH]c(=O)c3ccccc23)ccc1F)N1CCN(C(=O)C2CC2)CC1 [Olaparib] (partner 8 µM)
Outline: (§1)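 Lung cancer cell lines were seeded in 1536-well plates and dosed by pin tool the next day, with either a single drug or a fixed anchor-drug dose combined with five library-drug doses (not always all listed) spaced in √10 steps. Five days later, one step fixed the cells and stained their nuclei (final 0.05% Triton X-100, 1% formaldehyde, 1 ug/ml Hoechst), and nuclei were counted on 4× images. Relative viability is the nuclei count in treated wells divided by the count in vehicle wells, and each value is the median of duplicate plates.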

Trametinib + OSI-027 = compound: CC(=O)Nc1cccc(-n2c(=O)n(C3CC3)c(=O)c3c(Nc4ccc(I)cc4F)n(C)c(=O)c(C)c32)c1 [Trametinib] + COc1cccc2cc(-c3nc([C@H]4CC[C@H](C(=O)O)CC4)n4ncnc(N)c34)[nH]c12 [OSI-027] (partner 0.5 µM)
Outline: as §1

[2] = compound: CN1C=C(C2=CC=CC=C21)/C=C\3/C4=C(C=CC=N4)NC3=O + Cc1nc(NC(=O)N2CCC[C@H]2C(N)=O)sc1-c1ccnc(C(C)(C)C(F)(F)F)c1 [Alpelisib] (partner 2 µM)
Outline: as §1

[3] = compound: CN1C=C(C2=CC=CC=C21)/C=C\3/C4=C(C=CC=N4)NC3=O + CC(=O)c1c(C)c2cnc(Nc3ccc(N4CCNCC4)cn3)nc2n(C2CCCC2)c1=O [Palbociclib] (partner 0.5 µM)
Outline: as §1

Cell Line	relative viability ([1]; first compound 0.02 µM)	relative viability ([1]; first compound 0.06325 µM)	relative viability ([1]; first compound 0.2 µM)	relative viability ([1]; first compound 0.6325 µM)	relative viability ([1]; first compound 2 µM)	relative viability (Trametinib + OSI-027; first compound 0.0025 µM)	relative viability (Trametinib + OSI-027; first compound 0.007906 µM)	relative viability (Trametinib + OSI-027; first compound 0.025 µM)	relative viability (Trametinib + OSI-027; first compound 0.07906 µM)	relative viability (Trametinib + OSI-027; first compound 0.25 µM)	relative viability ([2]; first compound 0.02 µM)	relative viability ([2]; first compound 0.06325 µM)	relative viability ([2]; first compound 0.2 µM)	relative viability ([2]; first compound 0.6325 µM)	relative viability ([2]; first compound 2 µM)	relative viability ([3]; first compound 0.02 µM)	relative viability ([3]; first compound 0.06325 µM)	relative viability ([3]; first compound 0.2 µM)	relative viability ([3]; first compound 0.6325 µM)	relative viability ([3]; first compound 2 µM)
NCI-H838	0.695	0.604	0.653	0.765	0.67	0.301	0.298	0.227	0.281	0.236	0.603	0.859	0.792	0.901	0.937	0.208	0.174	0.214	0.199	0.18
NCI-H1755	0.903	0.946	0.83	0.699	0.681	0.668	0.673	0.559	0.707	0.664	0.872	0.922	0.944	0.836	0.858	0.434	0.463	0.431	0.433	0.427
HCC-15	0.716	0.679	0.733	0.713	0.837	0.436	0.338	0.201	0.161	0.167	1.01	0.848	0.808	0.889	0.958	0.708	0.733	0.724	0.685	0.746
NCI-H2087	0.513	0.56	0.62	0.511	0.653	0.323	0.275	0.139	0.137	0.101	1.16	1.21	1.17	1.05	1.22	0.243	0.178	0.229	0.199	0.237
LCLC-103H	0.764	0.727	0.801	0.825	0.808	0.463	0.44	0.379	0.334	0.421	1.05	1.02	0.937	0.941	0.924	0.493	0.411	0.479	0.471	0.472
LK-2	0.563	0.528		0.422	0.66	0.197	0.205	0.164	0.18	0.186		0.766	0.76	0.943	0.61	0.232	0.421	0.447	0.576	0.678
HCC-78	0.78	0.773	0.688	0.754	0.818	0.366	0.361	0.313	0.343	0.333	0.289	0.509	0.304	0.282	0.287	0.356	0.426	0.364	0.48	0.437
NCI-H1666	0.749	0.735	0.706	0.708	0.714	0.765	0.811	0.632	0.675	0.552	0.94	0.814	0.805	0.915	0.616	0.604	0.62	0.634	0.574	0.632
EKVX	0.892			0.8	0.717	0.667	0.532	0.379	0.473	0.426	0.765	0.763	0.795	0.725	0.703	0.323			0.273	0.732
COR-L 105	0.522	0.459	0.478	0.585	0.967	0.583	0.477	0.309	0.333	0.295	0.907	0.898	0.922	1.01	0.874	0.428	0.418	0.419	0.373	0.497
NCI-H322M	0.766	0.717	0.718	0.961	0.923	0.504	0.483	0.467	0.41	0.383	0.839	0.725	0.773	0.753	0.708	0.451	0.458	0.487	0.498	0.5
HARA	0.247	0.747		0.726	0.794	0.575	0.359	0.23	0.328	0.0752	0.677	0.812	0.783	0.63	0.734	0.257	0.297	0.192	0.257	0.227
NCI-H2023	0.451	0.53	0.566	0.432	0.517	0.344	0.297	0.229	0.311	0.188	0.649	0.594	0.542	0.516	0.53	0.412	0.369		0.45	0.372
NCI-H1437	0.628	0.644	0.657	0.681	0.658	0.565	0.518	0.262	0.3	0.295	0.877	0.897	1.15	1.1	1.16	0.344	0.34	0.292	0.32	0.318
